Data as given in ChEMBL document CHEMBL4813981, “Synthesis and in vitro antibacterial activity of new aminothiazole-oximepiperidone cephalosporins” (2021).
Converted amounts (≈) assume the structure as drawn.

Tests used:
Escherichia coli [1] = assay: Antibacterial activity against Escherichia coli 15-4 overexpressing extended spectrum beta-lactamases assessed as reduction in bacterial growth in the presence of Avibactam; format: functional
Acinetobacter baumannii [2] = assay: Antibacterial activity against Multidrug resistant Acinetobacter baumannii AR 15-4 assessed as reduction in bacterial growth; format: functional
Klebsiella aerogenes [3] = assay: Bactericidal activity against Enterobacter aerogenes 15-3 assessed as reduction in bacterial growth in the presence of avibactam; format: functional
Klebsiella aerogenes [4] = assay: Antibacterial activity against Enterobacter aerogenes 15-3 assessed as reduction in bacterial growth in the presence of Avibactam; format: functional
Acinetobacter baumannii [5] = assay: Antibacterial activity against Multidrug resistant Acinetobacter baumannii AR 15-3 assessed as reduction in bacterial growth in the presence of Avibactam; format: functional
Pseudomonas aeruginosa [6] = assay: Antibacterial activity against Carbapenem- sensitive Pseudomonas aeruginosa 17-11 assessed as reduction in bacterial growth in the presence of Avibactam; format: functional
Enterococcus faecalis = assay: Antibacterial activity against Enterococcus faecalis ATCC 51299 assessed as reduction in bacterial growth in the presence of Avibactam; format: functional
Klebsiella aerogenes [7] = assay: Antibacterial activity against Enterobacter aerogenes 17-5 assessed as reduction in bacterial growth in the presence of Avibactam; format: functional
Acinetobacter baumannii [8] = assay: Bactericidal activity against Acinetobacter baumannii NCTC 13304 assessed as reduction in bacterial growth in the presence of avibactam; format: functional
Klebsiella pneumoniae [9] = assay: Antibacterial activity against ESBLs negative Carbapenem-sensitive Klebsiella pneumoniae 17-17 assessed as reduction in bacterial growth in the presence of Avibactam; format: functional
Escherichia coli [10] = assay: Antibacterial activity against Escherichia coli ATCC 35218 assessed as reduction in bacterial growth in the presence of Avibactam; format: functional
Escherichia coli [11] = assay: Bactericidal activity against ESBLs positive carbapenem-sensitive Escherichia coli 17-10 assessed as reduction in bacterial growth in the presence of avibactam; format: functional
Pseudomonas aeruginosa [12] = assay: Bactericidal activity against carbapenem-sensitive Pseudomonas aeruginosa 17-9 assessed as reduction in bacterial growth; format: functional
Pseudomonas aeruginosa [13] = assay: Antibacterial activity against Carbapenem- sensitive Pseudomonas aeruginosa 17-9 assessed as reduction in bacterial growth in the presence of Avibactam; format: functional
Klebsiella pneumoniae [14] = assay: Antibacterial activity against Multidrug resistant Klebsiella pneumoniae KR 15-1 assessed as reduction in bacterial growth; format: functional
Pseudomonas aeruginosa [15] = assay: Antibacterial activity against Carbapenem- sensitive Pseudomonas aeruginosa 17-7 assessed as reduction in bacterial growth in the presence of Avibactam; format: functional
Klebsiella pneumoniae [16] = assay: Antibacterial activity against ESBLs negative Carbapenem-sensitive Klebsiella pneumoniae 17-19 assessed as reduction in bacterial growth; format: functional
Pseudomonas aeruginosa [17] = assay: Bactericidal activity against carbapenem-sensitive Pseudomonas aeruginosa 17-7 assessed as reduction in bacterial growth in the presence of avibactam; format: functional
Pseudomonas aeruginosa [18] = assay: Bactericidal activity against Pseudomonas aeruginosa ATCC 27853 assessed as reduction in bacterial growth in the presence of avibactam; format: functional
Escherichia coli [19] = assay: Bactericidal activity against ESBLs positive carbapenem-sensitive Escherichia coli 17-18 assessed as reduction in bacterial growth in the presence of avibactam; format: functional
Klebsiella pneumoniae [20] = assay: Bactericidal activity against ESBLs positive Carbapenem-sensitive Klebsiella pneumoniae 17-12 assessed as reduction in bacterial growth in the presence of avibactam; format: functional
Pseudomonas aeruginosa [21] = assay: Antibacterial activity against Carbapenem- sensitive Pseudomonas aeruginosa 17-22 assessed as reduction in bacterial growth in the presence of Avibactam; format: functional
Klebsiella pneumoniae [22] = assay: Bactericidal activity against Carbapenem- resistant Klebsiella pneumoniae KR 15-5 assessed as reduction in bacterial growth in the presence of avibactam; format: functional
Escherichia coli [23] = assay: Antibacterial activity against ESBLs positive Carbapenem-sensitive Escherichia coli 17-18 assessed as reduction in bacterial growth in the presence of Avibactam; format: functional
Klebsiella pneumoniae [24] = assay: Bactericidal activity against Carbapenem- resistant Klebsiella pneumoniae KR 15-7 assessed as reduction in bacterial growth in the presence of avibactam; format: functional
Klebsiella aerogenes [25] = assay: Antibacterial activity against Enterobacter aerogenes 17-4 assessed as reduction in bacterial growth in the presence of Avibactam; format: functional
Klebsiella aerogenes [26] = assay: Bactericidal activity against Enterobacter aerogenes 15-4 assessed as reduction in bacterial growth in the presence of avibactam; format: functional
Escherichia coli [27] = assay: Antibacterial activity against ESBLs positive Carbapenem-sensitive Escherichia coli 17-22 assessed as reduction in bacterial growth in the presence of Avibactam; format: functional
Klebsiella pneumoniae [28] = assay: Antibacterial activity against Multidrug resistant Klebsiella pneumoniae KR 15-1 assessed as reduction in bacterial growth in the presence of Avibactam; format: functional
Acinetobacter baumannii [29] = assay: Bactericidal activity against Acinetobacter baumannii NCTC 13304 assessed as reduction in bacterial growth; format: functional
Klebsiella pneumoniae [30] = assay: Antibacterial activity against Carbapenem- resistant Klebsiella pneumoniae KR 15-10 assessed as reduction in bacterial growth in the presence of Avibactam; format: functional
Klebsiella pneumoniae [31] = assay: Bactericidal activity against ESBLs negative Carbapenem-sensitive Klebsiella pneumoniae 17-17 assessed as reduction in bacterial growth in the presence of avibactam; format: functional
Enterobacter cloacae [32] = assay: Bactericidal activity against Enterobacter cloacae 17-9 assessed as reduction in bacterial growth in the presence of avibactam; format: functional
Klebsiella pneumoniae [33] = assay: Antibacterial activity against ESBLs negative Carbapenem-sensitive Klebsiella pneumoniae 17-16 assessed as reduction in bacterial growth
Enterobacter cloacae [34] = assay: Antibacterial activity against Enterobacter cloacae 17-8 assessed as reduction in bacterial growth in the presence of Avibactam; format: functional
Pseudomonas aeruginosa [35] = assay: Antibacterial activity against Carbapenem- sensitive Pseudomonas aeruginosa 17-26 assessed as reduction in bacterial growth in the presence of Avibactam; format: functional
Enterobacter cloacae [36] = assay: Antibacterial activity against Enterobacter cloacae 17-2 assessed as reduction in bacterial growth
Pseudomonas aeruginosa [37] = assay: Bactericidal activity against carbapenem-sensitive Pseudomonas aeruginosa 17-26 assessed as reduction in bacterial growth in the presence of avibactam; format: functional
Pseudomonas aeruginosa [38] = assay: Bactericidal activity against carbapenem-sensitive Pseudomonas aeruginosa 17-10 assessed as reduction in bacterial growth; format: functional
Escherichia coli [39] = assay: Antibacterial activity against ESBLs negative Carbapenem-sensitive Escherichia coli 17-19 assessed as reduction in bacterial growth; format: functional
Pseudomonas aeruginosa [40] = assay: Antibacterial activity against Pseudomonas aeruginosa ATCC 27853 assessed as reduction in bacterial growth in the presence of Avibactam; format: functional
Acinetobacter baumannii [41] = assay: Antibacterial activity against Multidrug resistant Acinetobacter baumannii AR 15-2 assessed as reduction in bacterial growth in the presence of Avibactam; format: functional
Pseudomonas aeruginosa [42] = assay: Antibacterial activity against Carbapenem- sensitive Pseudomonas aeruginosa 17-24 assessed as reduction in bacterial growth in the presence of Avibactam; format: functional
Klebsiella pneumoniae [43] = assay: Bactericidal activity against Carbapenem- resistant Klebsiella pneumoniae KR 15-8 assessed as reduction in bacterial growth in the presence of avibactam; format: functional
Acinetobacter baumannii [44] = assay: Antibacterial activity against Multidrug resistant Acinetobacter baumannii AR 15-4 assessed as reduction in bacterial growth in the presence of Avibactam; format: functional
Klebsiella pneumoniae [45] = assay: Antibacterial activity against ESBLs positive Carbapenem-sensitive Klebsiella pneumoniae 17-3 assessed as reduction in bacterial growth in the presence of Avibactam; format: functional
Klebsiella aerogenes [46] = assay: Antibacterial activity against Enterobacter aerogenes 15-5 assessed as reduction in bacterial growth in the presence of Avibactam; format: functional

## Nc1nc(/C(=N/OCc2cc(=O)c(O)cn2O)C(=O)N[C@@H]2C(=O)N3C(C(=O)O)=CCS[C@H]23)cs1
Escherichia coli [1]
  MIC: 0.5 µg/mL
Acinetobacter baumannii [2]
  MIC: > 64 µg/mL
Klebsiella aerogenes [3]
  MBC: 16 µg/mL
Klebsiella aerogenes [4]
  MIC: 16 µg/mL
Acinetobacter baumannii [5]
  MIC: 8 µg/mL
Pseudomonas aeruginosa [6]
  MIC: 2 µg/mL
Enterococcus faecalis
  MIC: > 64 µg/mL
Klebsiella aerogenes [7]
  MIC: 2 µg/mL
Acinetobacter baumannii [8]
  MBC: 16 µg/mL
Klebsiella pneumoniae [9]
  MIC: 0.125 µg/mL
Escherichia coli [10]
  MIC: 0.25 µg/mL
Escherichia coli [11]
  MBC: 0.5 µg/mL
Pseudomonas aeruginosa [12]
  MBC: 16 µg/mL (≈ 31.5 µM)
Pseudomonas aeruginosa [13]
  MIC: 2 µg/mL
Klebsiella pneumoniae [14]
  MIC: > 64 µg/mL
Pseudomonas aeruginosa [15]
  MIC: 0.25 µg/mL
Klebsiella pneumoniae [16]
  MIC: ≤ 0.03 µg/mL
Pseudomonas aeruginosa [17]
  MBC: 0.25 µg/mL
Pseudomonas aeruginosa [18]
  MBC: 4 µg/mL
Escherichia coli [19]
  MBC: 1 µg/mL
Klebsiella pneumoniae [20]
  MBC: 0.125 µg/mL
Pseudomonas aeruginosa [21]
  MIC: 1 µg/mL
Klebsiella pneumoniae [22]
  MBC: 4 µg/mL
Escherichia coli [23]
  MIC: 0.5 µg/mL
Klebsiella pneumoniae [24]
  MBC: 2 µg/mL
Klebsiella aerogenes [25]
  MIC: 1 µg/mL
Klebsiella aerogenes [26]
  MBC: 1 µg/mL
Escherichia coli [27]
  MIC: 0.5 µg/mL
Klebsiella pneumoniae [28]
  MIC: 1 µg/mL
Acinetobacter baumannii [29]
  MBC: > 64 µg/mL
Klebsiella pneumoniae [30]
  MIC: 1 µg/mL
Klebsiella pneumoniae [31]
  MBC: 1 µg/mL
Enterobacter cloacae [32]
  MBC: 2 µg/mL
Klebsiella pneumoniae [33]
  MIC: 0.5 µg/mL (≈ 0.983 µM)
Enterobacter cloacae [34]
  MIC: 2 µg/mL
Pseudomonas aeruginosa [35]
  MIC: 1 µg/mL
Enterobacter cloacae [36]
  MIC: > 64 µg/mL
Pseudomonas aeruginosa [37]
  MBC: 4 µg/mL
Pseudomonas aeruginosa [38]
  MBC: 8 µg/mL (≈ 15.7 µM)
Escherichia coli [39]
  MIC: 1 µg/mL (≈ 1.97 µM)
Pseudomonas aeruginosa [40]
  MIC: 1 µg/mL
Acinetobacter baumannii [41]
  MIC: 16 µg/mL
Pseudomonas aeruginosa [42]
  MIC: 4 µg/mL
Klebsiella pneumoniae [43]
  MBC: 16 µg/mL
Acinetobacter baumannii [44]
  MIC: 8 µg/mL
Klebsiella pneumoniae [45]
  MIC: 4 µg/mL
Klebsiella aerogenes [46]
  MIC: 1 µg/mL

## CC(C)(O/N=C(\C(=O)N[C@@H]1C(=O)N2C(C(=O)[O-])=C(C[n+]3ccccc3)CS[C@H]12)c1csc(N)n1)C(=O)O [CEFTAZIDIME]
Escherichia coli [1]
  MIC: 0.5 µg/mL
Acinetobacter baumannii [2]
  MIC: > 64 µg/mL
Klebsiella aerogenes [3]
  MBC: 4 µg/mL
Klebsiella aerogenes [4]
  MIC: 4 µg/mL
Acinetobacter baumannii [5]
  MIC: 16 µg/mL
Pseudomonas aeruginosa [6]
  MIC: 0.5 µg/mL
Enterococcus faecalis
  MIC: > 64 µg/mL
Klebsiella aerogenes [7]
  MIC: 0.5 µg/mL
Acinetobacter baumannii [8]
  MBC: 8 µg/mL
Klebsiella pneumoniae [9]
  MIC: 0.125 µg/mL
Escherichia coli [10]
  MIC: 0.06 µg/mL
Escherichia coli [11]
  MBC: 1 µg/mL
Pseudomonas aeruginosa [12]
  MBC: 0.5 µg/mL (≈ 0.915 µM)
Pseudomonas aeruginosa [13]
  MIC: 0.125 µg/mL
Klebsiella pneumoniae [14]
  MIC: > 64 µg/mL
Pseudomonas aeruginosa [15]
  MIC: 0.125 µg/mL
Pseudomonas aeruginosa [17]
  MBC: 0.25 µg/mL
Pseudomonas aeruginosa [18]
  MBC: 4 µg/mL
Escherichia coli [19]
  MBC: 0.5 µg/mL
Klebsiella pneumoniae [20]
  MBC: 1 µg/mL
Pseudomonas aeruginosa [21]
  MIC: 0.5 µg/mL
Klebsiella pneumoniae [22]
  MBC: 4 µg/mL
Escherichia coli [23]
  MIC: 0.5 µg/mL
Klebsiella pneumoniae [24]
  MBC: 2 µg/mL
Klebsiella aerogenes [25]
  MIC: 0.5 µg/mL
Klebsiella aerogenes [26]
  MBC: 0.25 µg/mL
Escherichia coli [27]
  MIC: 1 µg/mL
Klebsiella pneumoniae [28]
  MIC: 2 µg/mL
Acinetobacter baumannii [29]
  MBC: > 64 µg/mL
Klebsiella pneumoniae [30]
  MIC: 2 µg/mL
Klebsiella pneumoniae [31]
  MBC: 0.25 µg/mL
Enterobacter cloacae [32]
  MBC: > 2 µg/mL
Klebsiella pneumoniae [33]
  MIC: 2 µg/mL (≈ 3.66 µM)
Enterobacter cloacae [34]
  MIC: 0.125 µg/mL
Pseudomonas aeruginosa [35]
  MIC: 1 µg/mL
Enterobacter cloacae [36]
  MIC: 64 µg/mL (≈ 117 µM)
Pseudomonas aeruginosa [37]
  MBC: 2 µg/mL
Pseudomonas aeruginosa [38]
  MBC: 8 µg/mL (≈ 14.6 µM)
Pseudomonas aeruginosa [40]
  MIC: 0.5 µg/mL
Acinetobacter baumannii [41]
  MIC: 8 µg/mL
Pseudomonas aeruginosa [42]
  MIC: 2 µg/mL
Klebsiella pneumoniae [43]
  MBC: 4 µg/mL
Acinetobacter baumannii [44]
  MIC: 8 µg/mL
Klebsiella pneumoniae [45]
  MIC: 2 µg/mL
Klebsiella aerogenes [46]
  MIC: 0.5 µg/mL

## C[C@@H](O)[C@H]1C(=O)N2C(C(=O)O)=C(S[C@@H]3CN[C@H](C(=O)N(C)C)C3)[C@H](C)[C@H]12 [MEROPENEM]
Klebsiella pneumoniae [16]
  MIC: < 0.03 µg/mL
Escherichia coli [39]
  MIC: < 0.03 µg/mL
